Measured values from patent US7652149B2, “Crystalline pyrazoles” (Pharmacia & Upjohn Company LLC, priority 2004, dated 2010).

Experiment: Suspension crystallization: relative thermodynamic stability of Forms I and II, Tt bracketed
Assay type: physicochemical
Conditions: for temperature at which the form is the equilibrium solid phase (thermodynamically more stable): mixture of Forms I and II suspended in toluene, at least three days, PXRD
Excerpt: In this Example, the transition temperature between Forms I and II is described. Form I and Form II are enantiotropic, which means that one polymorph is stable at temperatures below a transition temperature, Tt, but the other polymorph is stable at temperatures above Tt. The two solid phases have equal free energies at the transition temperature. Knowledge of the thermodynamic stability relationship is necessary for the selection of suitable crystallization conditions to produce Form I, and for formulation development and commercial manufacturing. It is important to determine Tt for the preparation and processing of bulk drug.
Materials. The Form I sample used in this study was 100% pure when tested by HPLC. Form II was prepared by heating Form I to 155° C. for 3 days in a dry oven and cooled to room temperature. This Form II sample was free of chemical degradation when tested by HPLC.
Methods. Suspension crystallization. The relative stability relationship between Forms I and II at a specific temperature was bracketed by suspending a mixture of the two polymorphs in toluene in a closed glass vial that was equilibrated at the temperature of interest. Excess solid of one polymorph was first added to saturate toluene in a glass vial at the chosen temperature. The other polymorph was added at least half an hour later. The suspension was stirred continuously for at least three days. A portion of the suspension was withdrawn and immediately filtered. The filtered solid was analyzed using PXRD to identify the equilibrium solid at that temperature. […] By repeating the experiment at different temperatures, the Tt was bracketed.

temperature at which the form is the equilibrium solid phase (thermodynamically more stable) [°C]	SMILES	relative stability of the crystal form (ambient temperature and pressure)
≥ 71.5	NS(=O)(=O)c1ccc(-n2nc(C(F)(F)F)cc2-c2ccc(F)cc2)cc1 [Form II, 4-[5-(4-fluorophenyl)-3-(trifluoromethyl)-1H-pyrazol-1-yl]-benzenesulfonamide]	unstable with respect to another form, Form I
≤ 71.0	NS(=O)(=O)c1ccc(-n2nc(C(F)(F)F)cc2-c2ccc(F)cc2)cc1 [Form I, 4-[5-(4-fluorophenyl)-3-(trifluoromethyl)-1H-pyrazol-1-yl]-benzenesulfonamide]	
